According to patent US8957114B2, “Formulations, salts and polymorphs of transnorsertraline and uses thereof” (Sunovion Pharmaceuticals Inc., priority 2009, dated 2015):

Legend:
[1] = VTI moisture sorption isotherm (hygroscopicity); assay type: physicochemical; conditions: 25° C.
Method: (§1) Each salt was analyzed by coulometric titration using an EM Scientific Aquastar C3000 titrator to determine water content. […] Each salt was analyzed using a Perkin Elmer TGA 7 Thermal Gravimetric Analyzer (TGA). […] Moisture sorption isotherms for each salt were generated using the VTI SGA-100 Symmetric Vapor Sorption Analyzer. Samples were run as received without pre-analysis drying. Equilibrium criteria were the lesser of 0.01 wt % change in 5 minutes or 180 minutes at each relative humidity (RH) step. […] Analysis was repeated for each sample in consecutive analyses (sample was not removed from analyzer). Sample sizes ranged from 18 mg to 35 mg.

[2] = Moisture content by coulometric Karl Fischer titration (KF); assay type: physicochemical
Method: as §1

[3] = Thermal gravimetric analysis (TGA) weight loss; assay type: physicochemical; conditions: heated 25° C. to 325° C. at 10° C./min
Method: The sixteen salts of transnorsertraline of Example 6.14 were analyzed for moisture content and hygroscopicity. Each salt was analyzed by coulometric titration using an EM Scientific Aquastar C3000 titrator to determine water content. Sample size ranged from 18 mg to 134 mg. Each salt was analyzed using a Perkin Elmer TGA 7 Thermal Gravimetric Analyzer (TGA). […] Moisture sorption isotherms for each salt were generated using the VTI SGA-100 Symmetric Vapor Sorption Analyzer. Samples were run as received without pre-analysis drying. Equilibrium criteria were the lesser of 0.01 wt % change in 5 minutes or 180 minutes at each relative humidity (RH) step. Temperature was fixed at 25° C. and the relative humidity steps (25 to 95% to 25%) were in 5% increments. Analysis was repeated for each sample in consecutive analyses (sample was not removed from analyzer). Sample sizes ranged from 18 mg to 35 mg.

[4] = Solubility of transnorsertraline salts in aqueous buffer systems (SGF, acetate buffer pH 4.5, SIF; HPLC); assay type: physicochemical
Method: Saturated solutions with excess solids were prepared in 20 mL clear glass scintillation vials. Simulated gastric fluid (pH 1.0, ˜0.1N HCl, 0.03M NaCl, no enzymes), simulated intestinal fluid (pH 6.8, 0.05M KH2PO4, ˜0.02N NaOH, no enzymes), and acetate buffer (pH 4.5, 0.02M sodium acetate, 0.03M acetic acid) were prepared in accordance with USP28 (USP28 Test Solutions p2855, Volumetric Solutions p2863). […] Solubility was determined using a HPLC method.

[5] = Solubility of transnorsertraline salts in de-ionized water (HPLC); conditions: for Solubility in Freebase Equivalents mgA/mL: de-ionized water, ambient, shaken up to nine days until equilibrium; for pH: saturated solution in de-ionized water
Method: For each salt, saturated solutions with excess solids in deionized water were prepared in 20 mL clear glass scintillation vials with screw caps. All samples were shaken at 300 rpm at ambient conditions for up to nine days until equilibrium was achieved. Solubility was determined using a HPLC method (Table 5).

[6] = Open dish excipient compatibility study Set 1a/1b (Active 1 with single excipients), 40° C./75% RH, 3 weeks, % impurities; assay type: physicochemical
Method: A Zorban SB-CN […], 25 cm×4.6 mm analytical column using a 0.05% trifluoroacetic acid in a 80:20 water:acetonitrile solution (Mobile Phase A) followed by a 0.05% trifluoroacetic acid in a 15:85 water:acetonitrile solution (Mobile Phase B) was used. Column temperature: 30° C. The flow rate: 1.0 mL/min. Injection volume: 50 μL. Wavelength: 220 nm. Minimum run time: 50 min (15 min delay). Mobile Phase gradient: […]
Transnorsertraline HCl (1) (“Active 1”) was mixed with each excipient present in 1 mg capsule strength respectively. The samples contained two different ratios (1:1 and as in the 1 mg capsules) of active and excipients.

[7] = repeated consecutive analysis (second line)
[8] = 0.05M Acetate Buffer (pH 4.5), ambient, up to nine days
[9] = Simulated Gastric Fluid (no enzymes), ambient, up to nine days
[10] = Simulated Intestinal Fluid (pH 6.8, no enzymes), ambient, up to nine days
[11] = saturated solution in 0.05M Acetate Buffer (pH 4.5)
[12] = saturated solution in Simulated Gastric Fluid
[13] = saturated solution in Simulated Intestinal Fluid
[14] = Set 1a, active:excipient 1:1, open dish 40° C./75% RH
[15] = Set 1b, active:excipient ratio as in 1 mg capsules, open dish 40° C./75% RH

Compound	VTI Adsorp. (% wt gain 25 to 95% RH) ([1]; first analysis)	Initial KF (% H2O) [2]	VTI Desorp. (% wt loss 95 to 25% RH) ([1]; first analysis)	VTI Adsorp. (% wt gain 25 to 95% RH) [1, 7]	TGA (% wt loss) [3]	VTI Desorp. (% wt loss 95 to 25% RH) [1, 7]	pH [4, 11]	pH [4, 12]	pH [4, 13]	pH [5]	other results
N[C@@H]1CC[C@@H](c2ccc(Cl)c(Cl)c2)c2ccccc21.O=C1CC[C@@H](C(=O)O)N1	17.28 % wt gain	0.10 % H2O	–	–	–	–	–	–	–	–	–
O=S(=O)(O)O [Sulfate]	10.19 % wt gain	3.34 % H2O	9.51 % wt loss	7.25 % wt gain	4.20 % wt loss	–	–	–	–	–	–
Benzoate	0.10 % wt gain	0.27 % H2O	0.10 % wt loss	0.08 % wt gain	0.05 % wt loss	0.07 % wt loss	–	–	–	–	–
Citrate	2.59 % wt gain	0.31 % H2O	3.96 % wt loss	3.24 % wt gain	–	3.61 % wt loss	–	–	–	–	–
Fumarate	0.18 % wt gain	0.40 % H2O	0.17 % wt loss	0.17 % wt gain	0.81 % wt loss	0.16 % wt loss	4.60	1.25	6.63	5.30	Solubility in Freebase Equivalents mgA/mL [4, 8]: 0.69 mgA/mL; Solubility in Freebase Equivalents mgA/mL [4, 9]: <0.01 mgA/mL; Solubility in Freebase Equivalents mgA/mL [4, 10]: 0.30 mgA/mL; Solubility in Freebase Equivalents mgA/mL [5]: 0.52 mgA/mL
L-tartrate	3.52 % wt gain	0.62 % H2O	1.36 % wt loss	1.37 % wt gain	–	–	4.58	1.24	6.73	2.63	–
Maleate	0.10 % wt gain	0.06 % H2O	0.09 % wt loss	0.08 % wt gain	0.02 % wt loss	0.08 % wt loss	4.52	1.25	6.47	3.98	Solubility in Freebase Equivalents mgA/mL [4, 8]: 1.23 mgA/mL; Solubility in Freebase Equivalents mgA/mL [4, 9]: 0.08 mgA/mL; Solubility in Freebase Equivalents mgA/mL [4, 10]: 0.28 mgA/mL; Solubility in Freebase Equivalents mgA/mL [5]: 1.88 mgA/mL
Phosphate	3.00 % wt gain	0.16 % H2O	1.37 % wt loss	2.14 % wt gain	–	1.20 % wt loss	4.55	1.24	6.49	3.27	Solubility in Freebase Equivalents mgA/mL ([4]; pH 1): <0.01 mgA/mL; Solubility in Freebase Equivalents mgA/mL ([4]; pH 4.5): 2.63 mgA/mL; Solubility in Freebase Equivalents mgA/mL ([4]; pH 6.8): 0.27 mgA/mL
S-mandelate	3.24 % wt gain	0.32 % H2O	3.95 % wt loss	3.79 % wt gain	–	3.02 % wt loss	–	–	–	–	–
Succinate	3.25 % wt gain	1.03 % H2O	3.17 % wt loss	–	–	–	4.50	1.27	6.46	3.89	–
Tosylate	0.06 % wt gain	0.09 % H2O	0.06 % wt loss	–	0.16 % wt loss	–	4.56	1.10	6.78	6.16	Solubility in Freebase Equivalents mgA/mL [4, 8]: 0.63 mgA/mL; Solubility in Freebase Equivalents mgA/mL [4, 9]: 0.06 mgA/mL; Solubility in Freebase Equivalents mgA/mL [4, 10]: 0.21 mgA/mL; Solubility in Freebase Equivalents mgA/mL [5]: 0.53 mgA/mL
Transnorsertraline HCl [active 1]	–	–	–	–	–	–	–	–	–	–	% Active [6, 14]: 99.68%; % Impurities, peak RRT 0.764 [6, 14]: 0.05%; % Impurities, peak RRT 0.862, Synthetic Impurity 1 [6, 14]: 0.04%; % Impurities, peak RRT 0.885, Synthetic Impurity 2 [6, 14]: 0.05%; % Impurities, peak RRT 1.07, cis-diastereomer [6, 14]: 0.12%; % Impurities, peak RRT 1.386 [6, 14]: 0.07%; % Total Impurities [6, 14]: 0.33%; impurities formed due to the presence of excipients ([6]; Set 1a, ratio of active to excipient 1:1, 40° C./75% RH): no appreciable impurities formed; % Active [6, 15]: 99.68%; % Impurities, peak RRT 0.764 [6, 15]: 0.05%; % Impurities, peak RRT 0.862, Synthetic Impurity 1 [6, 15]: 0.04%; % Impurities, peak RRT 0.885, Synthetic Impurity 2 [6, 15]: 0.05%; % Impurities, peak RRT 1.07, cis-diastereomer [6, 15]: 0.12%; % Impurities, peak RRT 1.386 [6, 15]: 0.07%; % Total Impurities [6, 15]: 0.33%
